Measurements published in patent US11547697B2, “Heterocyclic compounds and uses thereof” (MILLENNIUM PHARMACEUTICALS, INC., priority 2009, dated 2023).
Like-named read-outs stand apart in the source and are kept apart here.

Key:
p110α/p85α = p110α/p85α (Homo sapiens (Human), UniProt P42336); assay: PI 3-Kinase (human) HTRF assay, p110α/p85α; type: biochemical
p110γ = p110γ (Homo sapiens (Human), UniProt P48736); assay: PI 3-Kinase (human) HTRF assay, p110γ; type: biochemical
[1] = tested on: tumor cells with a PI3Kα mutation (e.g., MDA-MB-361 and T47D); assay: Proliferation of tumor cells with PI3Kα mutation; type: cell-based; conditions: Homo sapiens
p110β/p85α = p110β/p85α (Homo sapiens (Human), UniProt P42338); assay: PI 3-Kinase (human) HTRF assay, p110β/p85α; type: biochemical
p110δ/p85α = p110δ/p85α (Homo sapiens (Human), UniProt O00329); assay: PI 3-Kinase (human) HTRF assay, p110δ/p85α; type: biochemical
[2] = T47D cells, read-out: T47D proliferation
[3] = in vitro, read-out: PI3K α IC50
[4] = in vitro, read-out: PI3K β IC50
[5] = in vitro, read-out: PI3K γ IC50
[6] = T47D cells, read-out: T47D proliferation IC50
[7] = in vitro, read-out: PI3K δ IC50

Chain of p110δ/p85α (O00329 whole entry): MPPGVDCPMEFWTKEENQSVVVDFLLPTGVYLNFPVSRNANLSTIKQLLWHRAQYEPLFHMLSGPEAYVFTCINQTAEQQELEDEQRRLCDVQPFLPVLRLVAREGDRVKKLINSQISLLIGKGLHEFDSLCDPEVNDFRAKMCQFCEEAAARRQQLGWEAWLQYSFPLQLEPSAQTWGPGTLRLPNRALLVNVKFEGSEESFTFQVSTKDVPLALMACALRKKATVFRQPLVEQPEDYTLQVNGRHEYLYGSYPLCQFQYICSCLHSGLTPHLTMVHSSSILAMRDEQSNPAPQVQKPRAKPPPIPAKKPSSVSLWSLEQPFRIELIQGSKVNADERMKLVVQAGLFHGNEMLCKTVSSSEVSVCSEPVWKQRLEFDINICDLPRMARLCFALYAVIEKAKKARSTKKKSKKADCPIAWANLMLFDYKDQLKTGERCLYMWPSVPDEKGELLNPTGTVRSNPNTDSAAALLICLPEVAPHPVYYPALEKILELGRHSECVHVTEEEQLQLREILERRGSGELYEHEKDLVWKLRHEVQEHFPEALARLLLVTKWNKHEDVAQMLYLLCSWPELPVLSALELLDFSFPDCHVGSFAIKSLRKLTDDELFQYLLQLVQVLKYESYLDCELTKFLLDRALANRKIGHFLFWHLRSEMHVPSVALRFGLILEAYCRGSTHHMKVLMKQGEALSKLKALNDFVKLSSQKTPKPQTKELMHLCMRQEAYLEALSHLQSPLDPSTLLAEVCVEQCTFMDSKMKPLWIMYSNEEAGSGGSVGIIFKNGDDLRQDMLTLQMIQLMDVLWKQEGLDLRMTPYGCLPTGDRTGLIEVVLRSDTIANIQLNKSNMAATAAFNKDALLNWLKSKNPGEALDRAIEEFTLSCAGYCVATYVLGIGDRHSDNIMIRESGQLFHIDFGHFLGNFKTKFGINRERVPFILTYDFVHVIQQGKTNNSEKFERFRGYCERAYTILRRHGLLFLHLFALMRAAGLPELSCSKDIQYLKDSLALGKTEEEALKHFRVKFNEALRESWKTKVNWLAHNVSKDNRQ
Chain of p110δ/p85α (P27986 whole entry partner): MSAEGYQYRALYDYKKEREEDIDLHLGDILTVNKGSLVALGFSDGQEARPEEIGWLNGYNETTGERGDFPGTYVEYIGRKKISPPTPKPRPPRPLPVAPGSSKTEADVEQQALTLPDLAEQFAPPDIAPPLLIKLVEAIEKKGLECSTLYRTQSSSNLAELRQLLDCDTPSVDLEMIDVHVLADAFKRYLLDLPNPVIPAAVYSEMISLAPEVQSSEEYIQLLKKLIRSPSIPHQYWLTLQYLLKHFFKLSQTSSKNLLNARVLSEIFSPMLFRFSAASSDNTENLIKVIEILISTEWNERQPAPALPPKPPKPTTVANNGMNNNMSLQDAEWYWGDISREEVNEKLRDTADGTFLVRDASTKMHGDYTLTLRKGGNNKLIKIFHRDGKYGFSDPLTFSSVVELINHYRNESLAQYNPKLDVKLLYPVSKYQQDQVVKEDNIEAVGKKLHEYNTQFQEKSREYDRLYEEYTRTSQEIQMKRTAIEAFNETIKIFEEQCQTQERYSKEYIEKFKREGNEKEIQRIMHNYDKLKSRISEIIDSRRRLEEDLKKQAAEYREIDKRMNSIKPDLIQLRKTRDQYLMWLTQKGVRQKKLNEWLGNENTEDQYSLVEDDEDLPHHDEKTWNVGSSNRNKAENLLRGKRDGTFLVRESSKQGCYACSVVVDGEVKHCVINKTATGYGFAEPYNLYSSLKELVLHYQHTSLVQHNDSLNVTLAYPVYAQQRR
Chain of p110α/p85α (P42336 whole entry): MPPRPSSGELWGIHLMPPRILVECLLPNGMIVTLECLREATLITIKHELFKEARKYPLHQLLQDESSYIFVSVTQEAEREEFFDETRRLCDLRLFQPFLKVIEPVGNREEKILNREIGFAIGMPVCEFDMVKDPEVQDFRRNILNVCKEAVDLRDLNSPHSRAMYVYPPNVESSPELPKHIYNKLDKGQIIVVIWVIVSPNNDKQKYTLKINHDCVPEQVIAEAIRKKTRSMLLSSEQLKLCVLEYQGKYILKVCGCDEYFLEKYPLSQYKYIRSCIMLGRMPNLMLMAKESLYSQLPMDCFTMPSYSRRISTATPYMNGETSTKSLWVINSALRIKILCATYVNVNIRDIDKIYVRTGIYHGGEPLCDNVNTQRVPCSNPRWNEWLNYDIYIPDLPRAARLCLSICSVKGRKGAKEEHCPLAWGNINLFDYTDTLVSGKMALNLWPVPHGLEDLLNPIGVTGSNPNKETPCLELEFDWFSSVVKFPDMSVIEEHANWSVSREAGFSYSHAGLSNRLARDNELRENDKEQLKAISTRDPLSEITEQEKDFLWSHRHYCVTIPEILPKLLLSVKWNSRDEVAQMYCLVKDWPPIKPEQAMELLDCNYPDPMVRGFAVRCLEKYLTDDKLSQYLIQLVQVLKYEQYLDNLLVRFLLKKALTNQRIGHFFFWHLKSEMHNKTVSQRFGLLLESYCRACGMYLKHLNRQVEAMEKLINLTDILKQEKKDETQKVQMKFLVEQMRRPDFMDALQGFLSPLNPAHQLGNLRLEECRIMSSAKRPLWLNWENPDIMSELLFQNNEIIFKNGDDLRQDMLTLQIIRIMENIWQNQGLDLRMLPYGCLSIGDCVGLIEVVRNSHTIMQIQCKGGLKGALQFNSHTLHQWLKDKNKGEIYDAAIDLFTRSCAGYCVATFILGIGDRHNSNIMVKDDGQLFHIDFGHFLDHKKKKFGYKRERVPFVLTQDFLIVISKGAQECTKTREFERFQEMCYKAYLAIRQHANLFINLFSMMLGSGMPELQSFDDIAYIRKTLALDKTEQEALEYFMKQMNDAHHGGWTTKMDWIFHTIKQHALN
Chain of p110α/p85α (P27986 whole entry partner): as the sequence (P27986 whole entry partner) above
Chain of p110γ (P48736 whole entry): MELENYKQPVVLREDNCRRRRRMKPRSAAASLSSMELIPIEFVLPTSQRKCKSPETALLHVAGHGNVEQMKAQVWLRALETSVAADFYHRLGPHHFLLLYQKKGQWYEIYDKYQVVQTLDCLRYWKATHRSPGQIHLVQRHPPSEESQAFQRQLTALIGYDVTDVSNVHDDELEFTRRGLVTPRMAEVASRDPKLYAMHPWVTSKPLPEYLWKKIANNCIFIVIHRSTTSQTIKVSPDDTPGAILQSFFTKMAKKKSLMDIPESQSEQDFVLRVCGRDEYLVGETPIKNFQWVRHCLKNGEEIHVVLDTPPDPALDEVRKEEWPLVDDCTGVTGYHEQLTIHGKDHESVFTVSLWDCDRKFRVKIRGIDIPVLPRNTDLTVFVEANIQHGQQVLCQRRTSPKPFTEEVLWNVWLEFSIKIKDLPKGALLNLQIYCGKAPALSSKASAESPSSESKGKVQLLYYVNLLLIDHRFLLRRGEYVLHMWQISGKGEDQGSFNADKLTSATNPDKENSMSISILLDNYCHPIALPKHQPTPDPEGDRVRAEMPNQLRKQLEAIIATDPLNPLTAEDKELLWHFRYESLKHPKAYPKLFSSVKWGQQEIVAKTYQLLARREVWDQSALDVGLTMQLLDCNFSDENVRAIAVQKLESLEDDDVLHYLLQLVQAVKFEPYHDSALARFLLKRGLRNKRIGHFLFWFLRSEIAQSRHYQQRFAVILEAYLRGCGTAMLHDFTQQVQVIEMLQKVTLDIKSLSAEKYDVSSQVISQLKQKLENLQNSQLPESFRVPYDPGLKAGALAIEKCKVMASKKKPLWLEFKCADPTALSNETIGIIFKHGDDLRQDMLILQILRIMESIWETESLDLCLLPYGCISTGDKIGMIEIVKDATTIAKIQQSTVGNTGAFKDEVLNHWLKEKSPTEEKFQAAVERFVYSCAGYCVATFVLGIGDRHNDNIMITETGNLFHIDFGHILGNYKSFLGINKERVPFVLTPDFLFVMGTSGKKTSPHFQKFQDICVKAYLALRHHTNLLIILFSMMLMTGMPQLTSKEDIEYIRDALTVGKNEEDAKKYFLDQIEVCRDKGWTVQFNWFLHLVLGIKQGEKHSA
Chain of p110β/p85α (P42338 whole entry): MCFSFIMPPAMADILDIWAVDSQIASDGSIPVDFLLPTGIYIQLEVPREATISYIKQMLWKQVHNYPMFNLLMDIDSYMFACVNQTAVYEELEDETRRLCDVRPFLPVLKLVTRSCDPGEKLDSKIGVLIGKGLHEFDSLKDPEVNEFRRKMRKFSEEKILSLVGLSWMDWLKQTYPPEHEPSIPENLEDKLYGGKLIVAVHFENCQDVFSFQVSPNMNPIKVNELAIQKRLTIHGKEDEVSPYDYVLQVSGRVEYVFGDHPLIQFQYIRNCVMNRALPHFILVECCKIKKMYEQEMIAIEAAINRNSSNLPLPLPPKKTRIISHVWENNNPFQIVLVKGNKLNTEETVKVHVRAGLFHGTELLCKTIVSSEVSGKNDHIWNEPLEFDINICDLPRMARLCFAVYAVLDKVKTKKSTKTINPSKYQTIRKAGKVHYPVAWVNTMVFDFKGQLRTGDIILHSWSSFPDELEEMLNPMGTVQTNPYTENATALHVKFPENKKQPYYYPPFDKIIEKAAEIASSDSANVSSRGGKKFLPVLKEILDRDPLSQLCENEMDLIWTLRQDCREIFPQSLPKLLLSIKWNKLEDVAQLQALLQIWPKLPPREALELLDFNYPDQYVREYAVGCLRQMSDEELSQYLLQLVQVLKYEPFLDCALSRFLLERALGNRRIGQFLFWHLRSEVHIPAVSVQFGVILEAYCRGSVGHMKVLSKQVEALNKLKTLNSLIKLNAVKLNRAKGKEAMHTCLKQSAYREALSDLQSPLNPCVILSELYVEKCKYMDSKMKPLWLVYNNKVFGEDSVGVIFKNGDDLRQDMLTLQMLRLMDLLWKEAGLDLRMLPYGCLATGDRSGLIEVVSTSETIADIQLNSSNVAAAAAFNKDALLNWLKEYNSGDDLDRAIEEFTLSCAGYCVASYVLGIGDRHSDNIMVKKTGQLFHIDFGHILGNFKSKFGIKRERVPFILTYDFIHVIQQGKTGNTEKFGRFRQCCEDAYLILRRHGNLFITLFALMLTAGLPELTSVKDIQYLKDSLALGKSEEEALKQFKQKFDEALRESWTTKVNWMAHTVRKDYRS
Chain of p110β/p85α (P27986 whole entry partner): as the sequence (P27986 whole entry partner) above

SMILES	IC50 (p110α/p85α; read-out: PI3K α IC50) [µM]	IC50 (p110γ; read-out: PI3K γ IC50) [µM]	IC50 [1, 2] [µM]	IC50 (p110β/p85α; read-out: PI3K β IC50) [µM]	also measured
Nc1nc2cc(-c3ccc4ncc(C(=O)N5CCN(CCO)CC5)n4c3)ccc2o1 [compound 148]	< 0.1	< 10	< 10		
Nc1nc2cc(-c3ccc4ncn(CCO)c(=O)c4c3)ccc2o1 [compound 184]	< 0.1	< 1	< 10	< 10	
CS(=O)(=O)N1CCN(C(=O)c2cnc3ccc(-c4ccc5oc(N)nc5c4)cn23)CC1 [compound 112]	< 0.1	< 1	< 1		IC50 (p110δ/p85α; read-out: PI3K δ IC50): < 10 µM
Nc1nc2cc(-c3ccc4ncc(N5CCNC(=O)C5)nc4c3)ccc2o1 [compound 135]	< 0.1	< 1	< 1	< 1	
CC1CN(C(=O)c2cnc3ccc(-c4ccc5oc(N)nc5c4)cn23)CCO1 (stereo not drawn) [compound 201]					IC50 (p110α/p85α; [3]): < 0.1 µM; IC50 (p110β/p85α; [4]): < 10 µM; IC50 (p110γ; [5]): < 10 µM; IC50 [1, 6]: < 10 µM
Cc1ccc(NC(=O)c2cnc3ccc(-c4ccc5oc(N)nc5c4)cn23)cn1 [compound 294]					IC50 (p110α/p85α; [3]): < 0.1 µM; IC50 (p110δ/p85α; [7]): < 10 µM; IC50 (p110γ; [5]): < 0.1 µM; IC50 [1, 6]: < 10 µM
Nc1nc2cc(-c3ccc4ncc(-c5cnn(CCO)c5)nc4c3)ccc2o1 [compound 108]	< 0.1	< 0.1	< 1	< 10	
CN1CCN(c2cnc3ccc(-c4ccc5nc(N)sc5c4)cc3n2)CC1 [compound 115]	< 0.1	< 10	< 10	< 0.1	
Nc1nc2cc(-c3ccc4ncc(-c5ccc6nc(N)oc6c5)n4c3)ccc2o1 [compound 50]	< 0.1	< 0.1	< 10		IC50 (p110δ/p85α; read-out: PI3K δ IC50): < 10 µM
CC(=O)N1CCN(C(=O)c2cnc3ccc(-c4ccc5oc(N)nc5c4)cn23)CC1 [compound 113]	< 0.1	< 1	< 10		
Nc1nc2cc(-c3ccc4ncc(C(=O)NC5CCC(O)CC5)n4c3)ccc2o1 (stereo not drawn) [compound 143]			< 1		
NC(=O)[C@@H]1CCCN1c1cnc2ccc(-c3ccc4oc(N)nc4c3)cc2n1 [compound 257]					IC50 (p110α/p85α; [3]): < 0.1 µM; IC50 [1, 6]: < 10 µM
Nc1nc2cc(-c3ccc4ncc(N5CCN(C6CC6)CC5)nc4c3)ccc2o1 [compound 261]					IC50 (p110α/p85α; [3]): < 0.1 µM; IC50 (p110β/p85α; [4]): < 1 µM; IC50 (p110γ; [5]): < 1 µM; IC50 [1, 6]: < 10 µM
CC(C)N1CCN(C(=O)c2cnc3ccc(-c4ccc5oc(N)nc5c4)cn23)CC1 [compound 160]	< 0.1		< 10	< 10	
CN1CCN(c2ccc(-c3cnc4ccc(-c5ccc6oc(N)nc6c5)cn34)cn2)CC1 [compound 42]	< 0.1	< 1	< 10		IC50 (p110δ/p85α; read-out: PI3K δ IC50): < 1 µM
NC(=O)[C@@H]1CCCN1C(=O)C1CN(c2cnc3ccc(-c4ccc5oc(N)nc5c4)cc3n2)C1 [compound 283]					IC50 (p110α/p85α; [3]): < 0.1 µM; IC50 (p110γ; [5]): < 1 µM; IC50 [1, 6]: < 10 µM
C[C@H]1COCCN1C(=O)c1cnc2ccc(-c3ccc4oc(N)nc4c3)cn12 [compound 483]					IC50 (p110α/p85α; read-out: PI3K α In Vitro IC50): < 0.1 µM; IC50 (p110β/p85α; read-out: PI3K β In Vitro IC50): < 10 µM; IC50 (p110γ; read-out: PI3K γ In Vitro IC50): < 10 µM; IC50 ([1]; PC3, read-out: PC3 proliferation In Vitro IC50): < 10 µM
NCC(=O)N1CCN(c2cnc3ccc(-c4ccc5oc(N)nc5c4)cc3n2)CC1 [compound 192]	< 0.1	< 1		< 1	IC50 (p110δ/p85α; read-out: PI3K δ IC50): < 1 µM
Nc1nc2ccc(-c3ccc4sc(N)nc4c3)cc2o1 [compound 249]					IC50 (p110α/p85α; [3]): < 0.1 µM; IC50 (p110β/p85α; [4]): < 0.1 µM; IC50 (p110δ/p85α; [7]): < 1 µM; IC50 (p110γ; [5]): < 0.1 µM
CC(C)N1CCC(n2cnc3ccc(-c4cncc(NS(=O)(=O)c5ccc(F)cc5F)c4)cc3c2=O)CC1 [compound 519]					IC50 (p110α/p85α; read-out: PI3K α In Vitro IC50): < 1 µM; IC50 (p110β/p85α; read-out: PI3K β In Vitro IC50): < 10 µM; IC50 (p110δ/p85α; read-out: PI3K δ In Vitro IC50): < 10 µM; IC50 (p110γ; read-out: PI3K γ In Vitro IC50): < 1 µM
Nc1nc2cc(-c3ccc4ncnc(NC5CCOCC5)c4c3)ccc2o1 [compound 24]	< 0.1	< 0.1		< 1	IC50 (p110δ/p85α; read-out: PI3K δ IC50): < 0.1 µM
COC(=O)N1CCN(c2cnc3ccc(-c4ccc5oc(N)nc5c4)cc3n2)CC1 [compound 193]	< 0.1	< 0.1		< 1	IC50 (p110δ/p85α; read-out: PI3K δ IC50): < 10 µM
CC1CN(c2cnc3ccc(-c4ccc5oc(N)nc5c4)cc3n2)CCN1 (stereo not drawn) [compound 149]	< 0.1	< 1		< 0.1	IC50 (p110δ/p85α; read-out: PI3K δ IC50): < 10 µM
COc1ncc(-c2ccc3ncc(C(=O)N4CCOCC4)n3c2)cc1NS(=O)(=O)c1cccc(F)c1 [compound 423]					IC50 (p110α/p85α; read-out: PI3K α In Vitro IC50): < 0.1 µM; IC50 (p110β/p85α; read-out: PI3K β In Vitro IC50): < 1 µM; IC50 (p110δ/p85α; read-out: PI3K δ In Vitro IC50): < 0.1 µM; IC50 (p110γ; read-out: PI3K γ In Vitro IC50): < 0.1 µM
